Patent publication US6472348B1, “Pyridone derivatives and herbicides” (Kumiai Chemical Industry Co., Ltd., priority 1996, dated 2002)

How the values were obtained:
Format in all cases: in vivo
Design in all cases: scale not given here
soybean (Gl) = assay: Test Example 6: crop plant selectivity by upland field soil treatment (soybean), phytotoxicity; details: 21st day after application
Summary of the method: (§1)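 Scoring took place 21 days after treatment using a set grading standard, covering both weed control and soybean injury. Seeds of soybean and weed species went into sand-filled pots under a soil cover before soil treatment and greenhouse culture.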

wheat (Tr) = assay: Test Example 5: crop plant selectivity by upland field soil treatment (wheat), phytotoxicity; details: 21st day after application
Summary of the method: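 Pre-emergence soil treatment, sand-filled pots, seeds covered with soil; greenhouse culture; visual scoring of weed control and wheat injury at day 21 post-application.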

[1] = test system: common lambsquarters (Ch); assay: Test Example 6: crop plant selectivity by upland field soil treatment (soybean), herbicidal effects; details: 21st day after application
Summary of the method: as §1

pale smartweed (Po) [2] = assay: as above; details: 21st day after application
Summary of the method: as §1

green foxtail (Se) = assay: as above; details: 21st day after application
Summary of the method: as §1

China jute (Ab) [3] = assay: as above; details: 21st day after application
Summary of the method: as §1

slender amaranth (Am) [4] = assay: as above; details: 21st day after application
Summary of the method: as §1

China jute (Ab) [5] = assay: Test Example 4: crop plant selectivity by upland field soil treatment (cotton), herbicidal effects; details: evaluated 21st day after application
Summary of the method: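 Cotton is sown alongside weeds in pots of sand, covered with soil, and the soil surface is treated. After greenhouse growth, herbicidal activity and phytotoxicity are graded on the 21st day.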

[6] = test system: common lambsquarters (Ch); assay: Test Example 9: crop plant selectivity by upland field foliage treatment (wheat), herbicidal effects; details: dose 1.6 g ai/10a, 14th day after treatment
Summary of the method: (§2)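 Seeds of wheat, pale smartweed, slender amaranth, common lambsquarters and China jute are sown in sand and grown 2 weeks under glass. Foliage is then treated, culture resumes in the greenhouse, and damage is graded on the 14th day.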

pale smartweed (Po) [7] = assay: as above; details: dose 1.6 g ai/10a, 14th day after treatment
Summary of the method: as §2

China jute (Ab) [8] = assay: as above; details: dose 1.6 g ai/10a, 14th day after treatment
Summary of the method: as §2

slender amaranth (Am) [9] = assay: as above; details: dose 1.6 g ai/10a, 14th day after treatment
Summary of the method: as §2

Compound | Phytotoxicity Gl (soybean (Gl); dose 1.6 g ai/10a) | Phytotoxicity Tr (wheat (Tr); dose 1.6 g ai/10a) | Herbicidal effects Ch ([1]; dose 1.6 g ai/10a) | Herbicidal effects Po (pale smartweed (Po) [2]; dose 1.6 g ai/10a) | Herbicidal effects Se (green foxtail (Se); dose 1.6 g ai/10a) | Herbicidal effects Ab (China jute (Ab) [3]; dose 1.6 g ai/10a) | Herbicidal effects Am (slender amaranth (Am) [4]; dose 1.6 g ai/10a) | Herbicidal effects Ab (China jute (Ab) [5]; dose 1.6 g ai/10 a) | Herbicidal effects Ab (China jute (Ab) [5]; dose 6.3 g ai/10 a) | Phytotoxicity Gl (soybean (Gl); dose 6.3 g ai/10a) | Herbicidal effects Ch [6] | Herbicidal effects Po (pale smartweed (Po) [7]) | Herbicidal effects Ab (China jute (Ab) [8]) | Herbicidal effects Am (slender amaranth (Am) [9]) | Herbicidal effects Ch ([1]; dose 6.3 g ai/10a) | Herbicidal effects Po (pale smartweed (Po) [2]; dose 6.3 g ai/10a) | Herbicidal effects Se (green foxtail (Se); dose 6.3 g ai/10a) | Herbicidal effects Ab (China jute (Ab) [3]; dose 6.3 g ai/10a) | Herbicidal effects Am (slender amaranth (Am) [4]; dose 6.3 g ai/10a) | Phytotoxicity Tr (wheat (Tr); dose 6.3 g ai/10a)
C#CC(C)Oc1cc(-c2cn(C)c(C(F)(F)F)cc2=O)c(F)cc1Cl (racemic) [Compound 6-10] | 0 | 0 | 5 | 5 | 4 | 4 | 5 | 4 | 5 |  |  |  |  |  |  |  |  |  |  | 
COc1cc(-c2ccc(C(F)(F)F)n(C)c2=O)c(F)cc1Cl [1-15] | 2 | 2 | 5 | 5 | 5 | 5 | 5 | 5 | 5 |  |  |  |  |  |  |  |  |  |  | 
C#CC(C)Oc1cc(-c2ccc(C(F)(F)F)n(C)c2=O)c(F)cc1Cl (stereo not drawn) [1-17] | 0 | 1 | 5 | 5 | 5 | 5 | 5 | 5 | 4 |  |  |  |  |  |  |  |  |  |  | 
C#CCOc1cc(-c2ccc(C(F)(F)F)n(C)c2=O)c(F)cc1Cl [1-18] | 1 | 2 | 5 | 5 | 5 | 5 | 5 | 5 | 5 |  |  |  |  |  |  |  |  |  |  | 
Cn1c(C(F)(F)F)ccc(-c2cc(OCC#N)c(Cl)cc2F)c1=O [1-25] |  |  |  |  |  |  |  |  | 5 | 2 | 5 | 5 | 5 | 5 | 5 | 5 | 5 | 5 | 5 | 
Cc1cc(-c2ccc(C(F)(F)F)n(C)c2=O)c(F)cc1Cl [1-90] | 2 |  | 5 | 5 | 5 | 5 | 5 |  | 5 | 2 |  |  |  |  | 5 | 5 | 5 | 5 | 5 | 1
Cn1c(C(F)(F)F)ccc(-c2cc(Cl)c(Cl)cc2F)c1=O [1-136] | 0 | 1 | 5 | 5 | 5 | 4 | 5 |  | 5 | 1 |  |  |  |  | 5 | 5 | 5 | 5 | 5 | 2
Cn1c(C(F)(F)F)ccc(-c2cc(OCC(F)(F)F)c(Cl)cc2F)c1=O [1-155] | 0 | 1 | 5 | 5 | 5 | 5 | 5 | 5 | 5 | 0 |  |  |  |  | 5 | 5 | 5 | 5 | 5 | 2
C#CCOc1cc(-c2ccc(C(F)(F)F)n(N)c2=O)c(F)cc1Cl [1-178] |  | 1 |  |  |  |  |  | 5 | 5 |  | 5 | 5 | 5 | 5 |  |  |  |  |  | 
COc1cc(-c2ccc(C(F)(F)F)n(N)c2=O)c(F)cc1Cl [1-179] |  |  |  |  |  |  |  |  | 5 |  | 5 | 5 | 5 | 5 |  |  |  |  |  | 1
C=CCN1C(=O)COc2cc(F)c(-c3ccc(C(F)(F)F)n(C)c3=O)cc21 [Compound 2-7] | 0 | 0 | 5 | 5 | 5 | 5 | 5 | 5 | 5 | 0 |  |  |  |  | 5 | 5 | 5 | 5 | 5 | 
CON=Cc1cc(-c2ccc(C(F)(F)F)n(C)c2=O)c(F)cc1Cl [Compound No. 1-72, 5-(1-methyl-6-trifluoromethyl-2(1H)-pyridon-3-yl)-2-chloro-4-fluorobenzaldehydeoxime-O-methyl ether] | 1 | 1 | 5 | 5 | 5 | 5 | 5 | 5 | 5 | 2 |  |  |  |  | 5 | 5 | 5 | 5 | 5 | 
Cn1c(C(F)(F)F)ccc(-c2cc(C#N)c(Cl)cc2F)c1=O [Compound No. 1-119, 3-(4-chloro-5-cyano-2-fluorophenyl)-1-methyl-6-trifluoromethyl-2(1H)-pyridone] |  |  |  |  |  |  |  |  | 5 | 2 | 5 | 5 | 4 | 5 | 5 | 5 | 5 | 5 | 5 | 
C#CCN1C(=O)COc2cc(F)c(-c3ccc(C(F)(F)F)n(C)c3=O)cc21 [Compound No. 2-1, 3-[7-fluoro-2,3-dihydro-4-(2-propynyl)-1,4-benzoxazin-3-on-6-yl]-1-methyl-6-trifluoromethyl-2(1H)-pyridone] | 0 | 0 | 5 | 5 | 5 | 5 | 5 | 5 |  | 1 |  |  |  |  | 5 | 5 | 5 | 5 | 5 | 
C#CCn1c(=O)sc2cc(F)c(-c3ccc(C(F)(F)F)n(C)c3=O)cc21 [Compound No. 3-1, 3-[6-fluoro-3-(2-propynyl)-benzothiazolin-2-on-5-yl]-1-methyl-6-trifluoromethyl-2(1H)-pyridone] |  |  |  |  |  |  |  | 5 | 5 | 1 |  |  |  |  | 5 | 5 | 5 | 5 | 5 | 1
COCc1cc2c(-c3ccc(C(F)(F)F)n(C)c3=O)c(F)cc(Cl)c2o1 [Compound No. 4-4, 3-(7-chloro-5-fluoro-2-methoxymethylbenzofuran-4-yl)-1-methyl-6-trifluoromethyl-2-(1H)-pyridone] |  | 2 |  |  |  |  |  | 5 | 5 | 2 |  |  |  |  | 5 | 5 | 5 | 5 | 5 | 
Cn1cc(-c2cc(Oc3ccccc3)c(Cl)cc2F)c(=O)cc1C(F)(F)F [Compound No. 6-19, 5-(4-chloro-2-fluoro-5-phenoxyphenyl)-1-methyl-2-trifluoromethyl-4(1H)-pyridone] | 0 | 0 | 3 | 5 | 5 | 3 | 5 | 3 | 5 | 0 |  |  |  |  | 5 | 5 | 5 | 5 | 5 | 0
Cc1cc2c(-c3cn(C)c(C(F)(F)F)cc3=O)c(F)cc(Cl)c2o1 [Compound No. 9-1, 5-(7-chloro-5-fluoro-2-methylbenzofuran-4-yl)-1-methyl-2-trifluoromethyl-4(1H)-pyridone] |  | 0 |  |  |  |  |  | 5 | 5 |  |  |  |  |  |  |  |  |  |  | 1
